Biological target: T1, KCNQ2/3 channels (Homo sapiens, UniProt O43525+O43526)
T1 construct: expressed in transfected cells
Assay: Fluorescence assay using a voltage sensitive dye (fluorimetry)
Format: cell-based
Details: CHO-K1 cells expressing KCNQ2/3 channels; for EC50: agonistic activity; for Emax: retigabine 50 μM = 100%, read-out: Fluorimetry % efficacy (retigabine 50 μM = 100%)
Procedure: Pharmacological Experiments Fluorescence Assay Using a Voltage Sensitive Dye
Human CHO-K1 cells expressing KCNQ2/3 channels are cultivated adherently at 37° C., 5% CO2 and 95% humidity in cell culture bottles (e.g. 80 cm^2 TC flasks, Nunc) with DMEM-high glucose (Sigma Aldrich, D7777) including 10% FCS (PAN Biotech, e.g. 3302-P270521) or alternatively MEM Alpha Medium (1×, liquid, Invitrogen, #22571), 10% fetal calf serum (FCS) (Invitrogen, #10270-106, heat-inactivated) and the necessary selection antibiotics.
Before being sown out for the measurements, the cells are washed with a 1×DPBS buffer without Ca^2+/Mg^2+ (e.g. Invitrogen, #14190-094) and detached from the bottom of the culture vessel by means of Accutase (PAA Laboratories, #L11-007) (incubation with Accutase for 15 min at 37° C.). The cell count then present is determined using a CASY™ cell counter (TCC model, Schärfe System) in order subsequently to apply, depending on the density optimization for the individual cell line, 20,000-30,000 cells/well/100 μl of the described nutrient medium to 96-well measuring plates of the Corning™ CellBIND™ type (Flat Clear Bottom Black Polystyrene Microplates, #3340). Incubation is then carried out for one hour at room temperature, without gassing or adjusting the humidity, followed by incubation for 24 hours at 37° C., 5% CO2 and 95% humidity.
The voltage-sensitive fluorescent dye from the Membrane Potential Assay Kit (Red™ Bulk format part R8123 for FLIPR, MDS Analytical Technologies™) is prepared by dissolving the contents of a vessel Membrane Potential Assay Kit Red Component A in 200 ml of extracellular buffer (ES buffer, 120 mM NaCl, 1 mM KCl, 10 mM HEPES, 2 mM CaCl2, 2 mM MgCl2, 10 mM glucose; pH 7.4). After removal of the nutrient medium, the cells are washed with 200 μl of ES buffer, then covered with a layer of 100 μl of the dye solution prepared above and incubated for 45 min at room temperature with the exclusion of light.
The fluorescence measurements are carried out with a BMG Labtech FLUOstar™ BMG Labtech NOVOstar™ or BMG Labtech POLARstar™ instrument (525 nm excitation, 560 nm emission, Bottom Read mode). After incubation of the dye, 50 μl of the test substances in the desired concentrations, or 50 μl of ES buffer for control purposes, are introduced into separate cavities of the measuring plate and incubated for 30 min at room temperature while being shielded from light. The fluorescence intensity of the dye is then measured for 5 min and the fluorescence value F1 of each well is thus determined at a given, constant time. 15 μl of a […] KCl solution ([…]) are then added to each well. The change in fluorescence is subsequently measured until all the relevant measured values have been obtained (mainly 5-30 min). At a given time after KCl application, a fluorescence value F2 is determined, in this case at the time of the fluorescence peak.
For calculation, the fluorescence intensity F2 is compared with the fluorescence intensity F1, and the agonistic activity of the target compound on the potassium channel is determined therefrom. F2 and F1 are calculated as follows: […]
In order to determine whether a substance has agonistic activity,
A substance has an agonistic activity on the potassium channel when
[formula] it is possible to conclude that a target compound has agonistic activity if an increase in
[formula] is to be observed as the dosage of the target compound increases.
Calculations of EC50 values are carried out with the aid of ‘Prism v4.0’ software (GraphPad Software™).

EC50 [nM]	Emax [%]	Structure (SMILES)
2350	150	O=C(NCc1cccs1)c1cccnc1CCCCc1ccc(F)cc1 [compound 22, 2-[4-(4-Fluorophenyl)-butyl]-N-(thiophen-2-yl-methyl)-pyridine-3-carboxylic acid amide]
27	207	CC(C)CCNC(=O)c1cccnc1SCCCc1cccc(C(F)(F)F)c1 [compound 208, N-(3-Methyl-butyl)-2-[3-[3-(trifluoromethyl)phenyl]-propylsulfanyl]-pyridine-3-carboxylic acid amide]
50	121	O=C(NCc1ccccc1)c1cccnc1SCCCc1ccc(F)cc1 [compound 66, N-Benzyl-2-[3-(4-fluorophenyl)-propylsulfanyl]-pyridine-3-carboxylic acid amide]
227	149	O=C(NCC1CCCCCCC1)c1cccnc1SCCCc1ccc(F)cc1 [compound 55, N-(Cyclooctyl-methyl)-2-[3-(4-fluorophenyl)-propylsulfanyl]-pyridine-3-carboxylic acid amide]
1290	89	O=C(NCc1cccc(-c2cccnc2)c1)c1cccnc1SCCCc1ccc(F)cc1 [compound 152, 2-[3-(4-Fluorophenyl)-propylsulfanyl]-N-[(3-pyridin-3-yl-phenyl)-methyl]-pyridine-3-carboxylic acid amide]
1490	174	O=C(NCc1cncs1)c1cccnc1SCCCc1ccc(F)cc1 [compound 145, 2-[3-(4-Fluorophenyl)-propylsulfanyl]-N-(thiazol-5-yl-methyl)-pyridine-3-carboxylic acid amide]
17	110	O=C(NCc1cccc(F)c1)c1cccnc1SCCC(F)(F)c1ccc(F)cc1 [compound 168, 2-[[3,3-Difluoro-3-(4-fluorophenyl)-propyl]sulfanyl]-N-[(3-fluorophenyl)-methyl]-pyridine-3-carboxylic acid amide]
377	268	O=C(NCC1CC2CCC1C2)c1cccnc1SCCCc1cccc(O)c1 (centres unmarked) [compound 73, N-(5-Bicyclo[2.2.1]heptanyl-methyl)-2-[3-(3-hydroxyphenyl)-propylsulfanyl]-pyridine-3-carboxylic acid amide]
1590	48	O=C(NCc1cccs1)c1cccnc1SCCCCc1ccccc1 [compound 100, 2-(4-Phenyl-butylsulfanyl)-N-(thiophen-2-yl-methyl)-pyridine-3-carboxylic acid amide]
155	168	CC1CCCC(CNC(=O)c2cccnc2SCCCc2ccc(F)cc2)C1 (centres unmarked) [compound 123, 2-[3-(4-Fluorophenyl)-propylsulfanyl]-N-[(3-methyl-cyclohexyl)-methyl]-pyridine-3-carboxylic acid amide]
134	196	CCCCNC(=O)c1cccnc1SCCCc1ccc(F)cc1 [compound 97, N-Butyl-2-[3-(4-fluorophenyl)-propylsulfanyl]-pyridine-3-carboxylic acid amide]
496	190	O=C(NCC1CC2CCC1C2)c1cccnc1SCCCc1cccc2ccccc12 (centres unmarked) [compound 52, N-(5-Bicyclo[2.2.1]heptanyl-methyl)-2-(3-naphthalen-1-yl-propylsulfanyl)-pyridine-3-carboxylic acid amide]
153	94	O=C(NCc1cccc(-c2ccccc2)c1)c1cccnc1SCCCc1ccc(F)cc1 [compound 122, 2-[3-(4-Fluorophenyl)-propylsulfanyl]-N-[(3-phenyl-phenyl)-methyl]-pyridine-3-carboxylic acid amide]
451	242	O=C(NCC1CC2CCC1C2)c1cccnc1SCCCc1ccccc1 (centres unmarked) [compound 33, N-(5-Bicyclo[2.2.1]heptanyl-methyl)-2-(3-phenyl-propylsulfanyl)-pyridine-3-carboxylic acid amide]
37	159	O=C(NCc1cccs1)c1cccnc1SCCC(F)(F)c1ccc(F)cc1 [compound 118, 2-[[3,3-Difluoro-3-(4-fluorophenyl)-propyl]sulfanyl]-N-(thiophen-2-yl-methyl)-pyridine-3-carboxylic acid amide]
361	87	O=C(NCc1cccs1)c1cccnc1SCCCc1cccs1 [compound 104, N-(Thiophen-2-yl-methyl)-2-(3-thiophen-2-yl-propylsulfanyl)-pyridine-3-carboxylic acid amide]
6460	96	O=C(NCCc1ccccn1)c1cccnc1SCCCc1ccc(F)cc1 [compound 82, 2-[3-(4-Fluorophenyl)-propylsulfanyl]-N-(2-pyridine-2-yl-ethyl)-pyridine-3-carboxylic acid amide]
144	176	CC1(C)CC1CNC(=O)c1cccnc1SCCCc1ccc(F)cc1 (centres unmarked) [compound 38, N-[(2,2-Dimethyl-cyclopropyl)-methyl]-2-[3-(4-fluorophenyl)-propylsulfanyl]-pyridine-3-carboxylic acid amide]
34	72	O=C(NCc1ccccc1F)c1cccnc1SCCCc1ccc(F)cc1 [compound 63, N-[(2-Fluorophenyl)-methyl]-2-[3-(4-fluorophenyl)-propylsulfanyl]-pyridine-3-carboxylic acid amide]
1610	224	CCCCCCSc1ncccc1C(=O)NCC1CC2CCC1C2 (centres unmarked) [compound 45, N-(5-Bicyclo[2.2.1]heptanyl-methyl)-2-(hexylsulfanyl)-pyridine-3-carboxylic acid amide]
	37	O=C(NCC1CCCCC1)c1cccnc1CCCS(=O)(=O)c1ccccc1 [compound 8, 2-[3-(Benzenesulfonyl)-propyl]-N-(cyclohexyl-methyl)-pyridine-3-carboxylic acid amide]
148	183	O=C(NCCC(F)(F)F)c1cccnc1SCCCc1ccc(F)cc1 [compound 48, 2-[3-(4-Fluorophenyl)-propylsulfanyl]-N-(3,3,3-trifluoro-propyl)-pyridine-3-carboxylic acid amide]
8020	89	O=C(NCCc1cccnc1)c1cccnc1SCCCc1ccc(F)cc1 [compound 81, 2-[3-(4-Fluorophenyl)-propylsulfanyl]-N-(2-pyridine-3-yl-ethyl)-pyridine-3-carboxylic acid amide]
126	173	Cc1ccc(CNC(=O)c2cccnc2SCCCc2ccc(F)cc2)o1 [compound 175, 2-[3-(4-Fluorophenyl)-propylsulfanyl]-N-[(5-methyl-furan-2-yl)-methyl]-pyridine-3-carboxylic acid amide]
96	270	CC(CCc1ccc(F)cc1)Sc1ncccc1C(=O)NCC1C2CCC1CC2 (centres unmarked) [compound 178, N-(7-Bicyclo[2.2.1]heptanyl-methyl)-2-[[3-(4-fluorophenyl)-1-methyl-propyl]sulfanyl]-pyridine-3-carboxylic acid amide]
242	221	O=C(NCC1CC2CCC1C2)c1cccnc1SCCCc1ccc(Cl)cc1 (centres unmarked) [compound 35, N-(5-Bicyclo[2.2.1]heptanyl-methyl)-2-[3-(4-chlorophenyl)-propylsulfanyl]-pyridine-3-carboxylic acid amide]
772	126	O=C(NCc1cccs1)c1cccnc1SCCOc1cccc(C(F)(F)F)c1 [compound 4, N-(Thiophen-2-yl-methyl)-2-[2-[3-(trifluoromethyl)-phenoxy]-ethylsulfanyl]-pyridine-3-carboxylic acid amide]

— patent US8586755B2, “Substituted nicotinamides as KCNQ2/3 modulators” (Grünenthal GmbH, priority 2009, dated 2013)
